Experimental data: PubChem BioAssay AID248 (DTP/NCI, 2004)
“And” between values parts separate entries of the source, which are not always exact repeats. Equal values may be shown once. Toxic doses and inconclusive results are not listed. Rule as the data show it: active = T/C of 150% or more; inactive = T/C below 125%.

System: L1210 leukemia ip in BDF1 mice, survival T/C
Experiment: NCI In Vivo Anticancer Drug Screen. Data for tumor model L1210 Leukemia (intraperitoneal) in B6D2F1 (BDF1) mice
Conditions: endpoint: mean survival time, higher = longer survival
Procedure, shortened: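 Tumor cells were implanted, animals were treated, and survival was followed. The result divides the treated measurement by the vehicle-control measurement.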

[1] = dose: 100.0 mg/kg/injection, schedule: Q01DX001 (ip), vehicle: saline with Tween-80
[2] = dose: 200.0 mg/kg/injection, schedule: Q01DX001 (ip), vehicle: saline with Tween-80
[3] = dose: 400.0 mg/kg/injection, schedule: Q01DX001 (ip), vehicle: saline with Tween-80
[4] = dose: 100.0 mg/kg/injection, schedule: Q01DX001 (ip), vehicle: carboxymethylcellulose (CMC)
[5] = dose: 200.0 mg/kg/injection, schedule: Q01DX001 (ip), vehicle: carboxymethylcellulose (CMC)
[6] = dose: 400.0 mg/kg/injection, schedule: Q01DX001 (ip), vehicle: carboxymethylcellulose (CMC)
[7] = dose: 12.5 mg/kg/injection, schedule: Q04DX003 (ip), vehicle: Klucel (hydroxypropylcellulose) (HPC)
[8] = dose: 25.0 mg/kg/injection, schedule: Q04DX003 (ip), vehicle: Klucel (hydroxypropylcellulose) (HPC)
[9] = dose: 50.0 mg/kg/injection, schedule: Q04DX003 (ip), vehicle: Klucel (hydroxypropylcellulose) (HPC)
[10] = dose: 50.0 mg/kg/injection, schedule: Q01DX001 (ip), vehicle: carboxymethylcellulose (CMC)
[11] = dose: 100.0 mg/kg/injection, schedule: Q01DX009 (ip), vehicle: saline
[12] = dose: 200.0 mg/kg/injection, schedule: Q01DX009 (ip), vehicle: saline
[13] = dose: 400.0 mg/kg/injection, schedule: Q01DX009 (ip), vehicle: saline
[14] = dose: 50.0 mg/kg/injection, schedule: Q01DX009 (ip), vehicle: saline with Tween-80
[15] = dose: 100.0 mg/kg/injection, schedule: Q01DX009 (ip), vehicle: saline with Tween-80
[16] = dose: 200.0 mg/kg/injection, schedule: Q01DX009 (ip), vehicle: saline with Tween-80

Measured: T/C

CCCCSC1CC(=O)N(CCCC)C1=O (stereo unspecified)
inactive: dose: 75.0 mg/kg/injection, schedule: Q04DX003 (ip), vehicle: saline with Tween-80 100 % of control | [1] 103 % of control | dose: 150.0 mg/kg/injection, schedule: Q04DX003 (ip), vehicle: saline with Tween-80 90 % of control | [2] 98 % of control | dose: 300.0 mg/kg/injection, schedule: Q04DX003 (ip), vehicle: saline with Tween-80 92 % of control | [3] 101 % of control

O=[N+]([O-])c1ccc(OCn2ncc3ccc([N+](=O)[O-])cc32)cc1
inactive: [4] 93 % of control | [5] 98 % of control | [6] 88 % of control

Cc1cn(C2OC(CO)C(O)C(O)C2O)c(=O)[nH]c1=O (stereo unspecified)
inactive: dose: 100.0 mg/kg/injection, schedule: Q01DX001 (ip), vehicle: saline 97 % of control | dose: 200.0 mg/kg/injection, schedule: Q01DX001 (ip), vehicle: saline 97 % of control | dose: 400.0 mg/kg/injection, schedule: Q01DX001 (ip), vehicle: saline 94 % of control

CC(C)[As](C)(=O)O
inactive: dose: 6.25 mg/kg/injection, schedule: Q04DX003 (ip), vehicle: Klucel (hydroxypropylcellulose) (HPC) 101 % of control | [7] 97 % of control | [8] 102 % of control and 103 % of control

CC(=O)Nc1cc(Cl)c(Cl)c([N+](=O)[O-])c1
inactive: dose: 100.0 mg/kg/injection, schedule: Q01DX009 (ip), vehicle: Klucel (hydroxypropylcellulose) (HPC) 100 % of control | dose: 200.0 mg/kg/injection, schedule: Q01DX009 (ip), vehicle: Klucel (hydroxypropylcellulose) (HPC) 97 % of control

COC(=N)c1ccc(O)cc1
inactive: dose: 100.0 mg/kg/injection, schedule: Q04DX002 (ip), vehicle: saline with Tween-80 94 % of control | dose: 200.0 mg/kg/injection, schedule: Q04DX002 (ip), vehicle: saline with Tween-80 98 % of control

COc1cc([N+](=O)[O-])cc(C=O)c1O
inactive: [8] 92 % of control | [9] 92 % of control | dose: 100.0 mg/kg/injection, schedule: Q04DX003 (ip), vehicle: Klucel (hydroxypropylcellulose) (HPC) 96 % of control and 101 % of control

CCOC(=O)C(O)C(Cl)(CC)c1ccccc1 (stereo unspecified)
inactive: dose: 100.0 mg/kg/injection, schedule: Q04DX002 (ip), vehicle: Klucel (hydroxypropylcellulose) (HPC) 95 % of control | dose: 200.0 mg/kg/injection, schedule: Q04DX002 (ip), vehicle: Klucel (hydroxypropylcellulose) (HPC) 100 % of control | dose: 400.0 mg/kg/injection, schedule: Q04DX002 (ip), vehicle: Klucel (hydroxypropylcellulose) (HPC) 122 % of control

C(=N\c1nncs1)/Nc1nncs1
inactive: dose: 40.0 mg/kg/injection, schedule: Q01DX015 (ip), vehicle: carboxymethylcellulose (CMC) 114 % of control and 118 % of control | [10] 102 % of control | dose: 60.0 mg/kg/injection, schedule: Q01DX015 (ip), vehicle: carboxymethylcellulose (CMC) 94 % of control | dose: 90.0 mg/kg/injection, schedule: Q01DX015 (ip), vehicle: carboxymethylcellulose (CMC) 118 % of control | [4] 98 % of control | dose: 135.0 mg/kg/injection, schedule: Q01DX015 (ip), vehicle: carboxymethylcellulose (CMC) 88 % of control | [6] 124 % of control

CN(C=O)c1ccc(C(=O)O)cc1
inactive: [4] 123 % of control | [5] 96 % of control | [6] 94 % of control

O=[P+](O)c1ccccc1
inactive: [11] 94 % of control | dose: 100.0 mg/kg/injection, schedule: Q04DX003 (ip), vehicle: saline 103 % of control | [12] 100 % of control | dose: 200.0 mg/kg/injection, schedule: Q04DX003 (ip), vehicle: saline 98 % of control | [13] 100 % of control | dose: 400.0 mg/kg/injection, schedule: Q04DX003 (ip), vehicle: saline 101 % of control

CCCCCC/C=N/NC(=O)c1ccc[n+](C)c1
inactive: [14] 93 % of control | [15] 100 % of control | [16] 100 % of control

O=C(O)CN(CCN(CC(=O)O)CC(=O)O)CCN(CC(=O)O)CC(=O)O
inactive: [4] 93 % of control | [6] 96 % of control

N#CCc1ccc([N+](=O)[O-])cc1
inactive: dose: 12.5 mg/kg/injection, schedule: Q01DX009 (ip), vehicle: Klucel (hydroxypropylcellulose) (HPC) 102 % of control | [7] 98 % of control | dose: 25.0 mg/kg/injection, schedule: Q01DX009 (ip), vehicle: Klucel (hydroxypropylcellulose) (HPC) 106 % of control | [8] 106 % of control | [9] 98 % of control

O=S(OCc1ccccc1)OCc1ccccc1
inactive: [11] 98 % of control | [12] 104 % of control | [13] 91 % of control

NC(=S)N/N=C/c1ccc(Cl)cn1
inactive: dose: 7.33 mg/kg/injection, schedule: Q04DX003 (ip), vehicle: saline with Tween-80 97 % of control | dose: 11.0 mg/kg/injection, schedule: Q01DX001 (ip), vehicle: saline with Tween-80 95 % of control | dose: 11.0 mg/kg/injection, schedule: Q04DX003 (ip), vehicle: saline with Tween-80 104 % of control | dose: 16.5 mg/kg/injection, schedule: Q01DX001 (ip), vehicle: saline with Tween-80 105 % of control | dose: 16.5 mg/kg/injection, schedule: Q04DX003 (ip), vehicle: saline with Tween-80 116 % of control | dose: 25.0 mg/kg/injection, schedule: Q01DX001 (ip), vehicle: saline with Tween-80 111 % of control | dose: 25.0 mg/kg/injection, schedule: Q04DX003 (ip), vehicle: saline with Tween-80 121 % of control

O=[N+]([O-])Cc1c2ccccc2nc2ccccc12
inactive: [14] 87 % of control | [15] 87 % of control | [16] 87 % of control

O=C(N/N=C/c1ccc2c(c1)OCO2)c1ccc([N+](=O)[O-])cc1
inactive: [10] 97 % of control | [4] 92 % of control | [5] 94 % of control | [6] 92 % of control

CC(=O)OC(OC(C)=O)c1ccccn1
inactive: dose: 75.0 mg/kg/injection, schedule: Q01DX001 (ip), vehicle: saline 94 % of control | dose: 150.0 mg/kg/injection, schedule: Q01DX001 (ip), vehicle: saline 96 % of control | dose: 300.0 mg/kg/injection, schedule: Q01DX001 (ip), vehicle: saline 93 % of control

CCOC(=O)c1c(Cl)c(Cl)c(Cl)c(Cl)c1C(=O)O
inactive: [1] 95 % of control | [15] 96 % of control | [2] 97 % of control | [16] 102 % of control | [3] 115 % of control
